≈ marks a conversion by molar mass, not a printed value. Structures can show the parent of a compound that is named as a salt. Where two headings read alike, the source gives them in different places.
Key:
[1] = test system: Bacterioides fragilis; assay: in vitro anti-anaerobic assay, minimum inhibitory concentration; type: cell-based, Bacterioides fragilis (ATCC 23745); conditions: ATCC 23745, 24 hours at 37° C., range of three runs; for MIC: 24 h, read-out: Minimum Inhibitory Concentrations, Bacterioides fragilis
Method: (§1) The results of in vitro assays for a number of compounds according to the invention are given in Table 1, which follows the Examples.
(§2) These tests were conducted by mixing a series of decreasing amounts of the compound under test with a liquid nutrient medium that had been inoculated with one of the test organisms. These preparations were incubated for 24 hours at 37° C. under anaerobic conditions and were then examined for the presence of growth as indicated by the turbidity in the liquid medium. Results were recorded as the lowest concentrations, in mg/l, of test compound that prevented growth of the test organisms (minimal inhibitory concentrations). Each test was run three times and the range of results are indicated.

[2] = test system: Propionibacterium acnes; assay: as above; type: cell-based, Propionibacterium acnes (ATCC 6919); conditions: Cutibacterium acnes, ATCC6919, ATCC 6919, 24 hours at 37° C., range of three runs, read-out: Minimum Inhibitory Concentrations, Propionibacterium acnes
Method: as §1, §2

[3] = test system: Desulfovibrio desulfuricans; assay: in vitro assay against non-pathogenic anaerobe, minimum inhibitory concentration; type: cell-based; conditions: 24 hours at 37° C., anaerobic, range of three runs; for MIC: Desulfovibrio desulfuricans, 24 h
Method: These preparations were incubated for 24 hours at 37° C. under anaerobic conditions and were then examined for the presence of growth as indicated by the turbidity in the liquid medium. […] The tests were conducted as described for the pathogenic organisms discussed above.

[4] = test system: Clostridium sporogenes; assay: in vitro anti-anaerobic assay, minimum inhibitory concentration; type: cell-based, Clostridium sporogenes (ATCC 19404); conditions: ATCC 19404, 24 hours at 37° C., range of three runs; for MIC: Clostridium sporogenes, ATCC19404, 24 h, read-out: Minimum Inhibitory Concentrations, Clostridium sporogenes
Method: as §1, §2

[5] = test system: Microsporum canis; assay: in vitro anti-fungal assay, minimum inhibitory concentration; type: cell-based; conditions: aerobic, 30° C., in duplicate, read-out: Minimum Inhibitory Concentrations, Microsporum canis
Method: as §2
(§3) The tests were conducted as described for the anaerobic bacteria with the exception that the organisms were incubated aerobically and kept at 30° C., apart from C.albicans which was kept at 37° C. Each test was run in duplicate.

[6] = test system: Candida albicans; assay: as above; type: cell-based
Method: as §2, §3

[7] = test system: Trichophyton mentagrophytes; assay: as above; type: cell-based; conditions: aerobic, 30° C., in duplicate, read-out: Minimum Inhibitory Concentrations, Trichophyton mentagrophytes
Method: as §2, §3

[8] = test system: Trichophyton rubrum; assay: as above; type: cell-based; conditions: aerobic, 30° C., in duplicate, read-out: Minimum Inhibitory Concentrations, Trichophyton rubrum
Method: as §2, §3

[9] = test system: Epidermophyton floccosom; assay: as above; type: cell-based, Epidermophyton floccosum; conditions: aerobic, 30° C., in duplicate, read-out: Minimum Inhibitory Concentrations, Epidermophyton floccosom
Method: as §2, §3

[10] = test system: anaerobic bacteria; conditions: known from the literature; cited from earlier work
[11] = reported in the literature; cited from earlier work
[12] = AIP-BREWER, read-out: Minimum Inhibitory Concentrations, D.desulfuricans AIP-BREWER
[13] = API SW2, read-out: Minimum Inhibitory Concentrations, D.desulfuricans API SW2
[14] = API-CORE, read-out: Minimum Inhibitory Concentrations, Desulfovibrio desulfuricans API-CORE
[15] = strain 3153, aerobic, 37° C., in duplicate, read-out: Minimum Inhibitory Concentrations, C.albicans 3153
[16] = strain A, aerobic, 37° C., in duplicate, read-out: Minimum Inhibitory Concentrations, Candida albicans A
[17] = strain B, aerobic, 37° C., in duplicate, read-out: Minimum Inhibitory Concentrations, C.albicans B
[18] = strain GB, aerobic, 37° C., in duplicate, read-out: Minimum Inhibitory Concentrations, C.albicans GB

MIC [5] [µg/mL]	MIC [6, 15] [µg/mL]	MIC [6, 16] [µg/mL]	MIC [6, 17] [µg/mL]	MIC [7] [µg/mL]	MIC [8] [µg/mL]	Structure (SMILES)	MIC [1] [µg/mL]	MIC [2] [µg/mL]	MIC [4] [µg/mL]	MIC [3, 12] [µg/mL]	MIC [3, 13] [µg/mL]	MIC [3, 14] [µg/mL]	also measured
						Clc1ccc(NN=C2c3ccccc3CCCC2n2ccnc2)c(Cl)c1 (centres unmarked) [1 (a), 6-(1H-imidazol-1-yl)6,7,8,9-tetrahydro-5-benzocycloheptanone, 2,4-dichlorophenylhydrazone, hydrogen oxalate]	1 to 2.5	2.5	0.5 to 2.5				Minimum Inhibitory Concentrations, D.desulfuricans AIP-BREWER ([3]; AIP-BREWER): 0.5 mg/L; Minimum Inhibitory Concentrations, D.desulfuricans API SW2 ([3]; API SW2): 0.5 mg/L
						Clc1ccc(NN=C2c3ccccc3CCCC2n2ccnc2)c(Cl)c1 (centres unmarked) [1 (b), 6-(1H-imidazol-1-yl)-6,7,8,9-tetrahydro-5-benzocycloheptanone, 2,4-dichlorophenylhydrazone, hydrochloride]				0.5 to 0.75	0.5 to 1	0.5	Minimum Inhibitory Concentrations, Bacterioides fragilis ([1]; hydrochloride): 0.5 to 1.0 mg/L; Minimum Inhibitory Concentrations, Clostridium sporogenes ([4]; hydrochloride): 0.5 to 1.0 mg/L
						Clc1ccc(NN=C2c3ccccc3CCCCC2n2ccnc2)c(Cl)c1 (centres unmarked) [1 (d), 6-(1H-Imidazol-1-yl)-7,8,9,10-tetrahydro-5(6H)-benzocyclooctanone, 2,4-dichlorophenylhydrazone hydrochloride]	1 to 2.5	0.5 to 2.5	0.5 to 0.75	0.5 to 1	0.5 to 0.75	0.5 to 2.5	
						Clc1ccc(NN=C2c3sccc3CCCC2n2ccnc2)c(Cl)c1 (centres unmarked) [1 (j), 7-(1H-Imidazol-1-yl)-4,5,6,7-tetrahydro-8H-cyclohepta[b]-thiophen-8-one, 2 ,4-dichlorophenylhydrazone hydrogen oxalate]	0.75 to 1	5	1 to 2.5	0.5 to 0.75	0.75 to 1	0.75 to 1	
						Clc1cc(Cl)c(NN=C2c3ccccc3CCCCC2n2ccnc2)c(Cl)c1 (centres unmarked) [3 (c), 6-(1H-Imidazol-1-yl)-7,8,9,10-tetrahydro-5(6H)-benzocyclooctanone, 2,4,6-trichlorophenylhydrazone hydrochloride]	2.5	2.5	0.5 to 1	0.5 to 0.75	0.5 to 0.75	0.75 to 1	
6.2	12.5	6.2	6.2	> 100	1.5	Clc1cc(Cl)c(NN=C2c3ccccc3CCCC2n2ccnc2)c(Cl)c1 (centres unmarked) [3 (d), 6-(1H-Imidazol-1-yl)-6,7,8,9-tetrahydro-5-benzocycloheptanone, 2,4,6-trichlorophenylhydrazone hydrogen oxalate]							MIC [6, 18]: 12.5 µg/mL
3.1	12.5	12.5	12.5	3.1	6.2	Cl.Clc1cc(Cl)c(NN=C2c3ccccc3OCCC2n2ccnc2)c(Cl)c1 (centres unmarked) [3 (i), 3,4-Dihydro-4-(1H-imidazol-1-yl)-1-benzoxepin-5(2H)-one, 2,4,6-trichlorophenylhydrazone hydrochloride]							MIC [9]: 3.1 µg/mL
12.5	12.5	6.2	6.2	25	12.5	Clc1cc(Cl)c(NN=C2c3ccsc3CCCC2n2ccnc2)c(Cl)c1 (centres unmarked) [3 (l), 5-(1H-Imidazol-1-yl)-5,6,7,8-tetrahydro-4H-cyclohepta[b]thiophen-4-one,2,4,6-trichlorophenylhydrazone hydrogen oxalate]							MIC [9]: 6.2 µg/mL
						Cc1ncc([N+](=O)[O-])n1CCO [Metronidazole, metronidazole, reference compound]	0.5 (≈ 2.92 µM)	> 100	0.5 (≈ 2.92 µM)	0.5 (≈ 2.92 µM)	0.5 (≈ 2.92 µM)	0.5 (≈ 2.92 µM)	activity against anaerobic bacteria [10]: active against anaerobic bacteria; teratogenicity [11]: teratogenic

Structure (SMILES)	MIC [5] [µg/mL]	MIC [6, 15] [µg/mL]	MIC [6, 16] [µg/mL]	MIC [6, 17] [µg/mL]	MIC [7] [µg/mL]	MIC [8] [µg/mL]	MIC [1] [µg/mL]	MIC [2] [µg/mL]	MIC [4] [µg/mL]	MIC [3, 12] [µg/mL]	MIC [3, 13] [µg/mL]	MIC [3, 14] [µg/mL]	also measured
Clc1cc(Cl)c(NN=C2c3ccc(Cl)cc3CCCC2n2ccnc2)c(Cl)c1 (centres unmarked) [3 (b), 2-Chloro-6-(1H-imidazol-1-yl)-6,7,8,9-tetrahydro-5-benzocycloheptanone,2,4,6-trichlorophenylhydrazone hydrochloride]	25	6.2	6.2	6.2	25		0.75 to 1	5	0.75 to 1	0.75	0.75 to 2.5	0.75 to 1	MIC [6, 18]: 6.2 µg/mL
Clc1ccc(COC(Cn2ccnc2)c2ccc(Cl)cc2Cl)c(Cl)c1 (centres unmarked) [Miconazole, reference compound]	6.2 (≈ 14.9 µM)				1.5 (≈ 3.6 µM)	3.1 (≈ 7.45 µM)							MIC ([6]; read-out: Minimum Inhibitory Concentrations, C.albicans 3153): 12.5 µg/mL (≈ 30 µM); MIC ([6]; read-out: Minimum Inhibitory Concentrations, C.albicans B): 6.2 µg/mL (≈ 14.9 µM); MIC ([6]; read-out: Minimum Inhibitory Concentrations, C.albicans GB): 12.5 µg/mL (≈ 30 µM); MIC ([6]; read-out: Minimum Inhibitory Concentrations, Candida albicans A): 6.2 µg/mL (≈ 14.9 µM); MIC [9]: 6.2 µg/mL (≈ 14.9 µM)
